Common to all, as to assay type: in vivo
The subject of data set [1] is Cabbage Looper (Trichoplusia ni, TRIPNI). In words: Bioassays on Cabbage Looper (CL), 128-well diet tray assay. To be noted: Trichoplusia ni; for mortality at 50 µg/cm2: 168 h, second instar larvae, 50 μg/cm^2 of test molecule on artificial diet, 25° C., five to seven days, average of eight wells, read-out: CL % Control (or Mortality) rating. An outline of the steps:
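Activity is mean percent mortality over eight wells of second-instar larvae exposed to diet treated at 50 μg/cm^2 for 5–7 days at 25° C.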

In data set [2] the test system is Beet Armyworm (Spodoptera exigua, LAPHEG). The experiment in a line: Bioassays on Beet Armyworm (BAW), 128-well diet tray assay. Conditions: Spodoptera exigua; for mortality at 50 µg/cm2: 168 h, second instar larvae, 50 μg/cm^2 of test molecule on artificial diet, 25° C., five to seven days, average of eight wells, read-out: BAW % Control (or Mortality) rating. The procedure, abridged:
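Test molecule was dissolved in 90:10 acetone-water and applied at 50 μg/cm^2 onto artificial diet in eight wells, then dried. Second instar larvae, one to five per well, were added, and trays were kept vented at 25° C. with a 14:10 photoperiod for five to seven days before mortality was recorded.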

For data set [3], the system named is Green Peach Aphid (Myzus persicae, MYZUPE). In words: Bioassays on Green Peach Aphid (GPA), foliar spray on cabbage seedlings. Conditions: 72 h. As to the method:
Certain molecules disclosed in this document were tested against GPA using procedures described in the following example. In the reporting of the results, the “GPA & YFM Rating Table” was used (See Table Section).
Cabbage seedlings grown in 3-inch pots, with 2-3 small (3-5 cm) true leaves, were used as test substrate. The seedlings were infested with 20-50 GPA (wingless adult and nymph stages) one day prior to chemical application. Four pots with individual seedlings were used for each treatment. Test molecules (2 mg) were dissolved in 2 mL of acetone/methanol (1:1) solvent, forming stock solutions of 1000 ppm test molecule. The stock solutions were diluted 5× with 0.025% Tween 20 in water to obtain the solution at 200 ppm test molecule. A hand-held aspirator-type sprayer was used for spraying a solution to both sides of […] leaves until runoff. Reference plants (solvent check) were sprayed with the diluent only containing 20% by volume of acetone/methanol (1:1) solvent. Treated plants were held in a holding room for three days at approximately 25° C. and ambient relative humidity (RH) prior to grading. Evaluation was conducted by counting the number of live aphids per plant under a microscope. Percent control was measured using Abbott's correction formula (W. S. Abbott, “A Method of Computing the Effectiveness of an Insecticide” J. Econ. Entomol. 18 (1925), pp. 265-267) as follows. Corrected % Control=100*(X−Y)/X where X=No. of live aphids on solvent check plants and Y=No. of live aphids on treated plants. The results are indicated in the table entitled “Table ABC: Biological Results” (See Table Section).

For data set [4], the system named is Yellow Fever Mosquito (Aedes aegypti, AEDSAE). To be noted: for YFM rating: Yellow Fever Mosquito, Table ABC / ABC-DP rating; for YFM % Control (or Mortality) rating: about 1 day-old larvae, 4000 ppm master solution diluted with 90:10 water/acetone, 15 μL per well plus 220 μL larval mixture, 3 days; for YFM: Table ABC: Biological Results, species YFM. The procedure, abridged:
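Compounds from DMSO master plates (4000 ppm stock) diluted in 90:10 water/acetone, then dispensed into six replicate plates and infested with ~1-day-old Aedes aegypti larvae in liver-powder water. Held covered at room temperature for 3 days; each well scored for larval mortality and graded on a rating scale.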

The mark [5] stands for this setting: Table ABC: Biological Results, species CL, read-out: CL.
[6] abbreviates: Table ABC: Biological Results, species BAW, read-out: BAW.
The mark [7] stands for this setting: Table ABC: Biological Results, species GPA, read-out: GPA.
Where [8] appears, read: Cabbage Looper, Table ABC / ABC-DP rating, read-out: CL rating.
Setting [9] is: Beet Armyworm, Table ABC / ABC-DP rating, read-out: BAW rating.

Like-named read-outs stand apart in the source and are kept apart here.

The record followed here is patent US20250228239A1, “MOLECULES HAVING PESTICIDAL UTILITY, AND INTERMEDIATES, COMPOSITIONS, AND PROCESSES, RELATED THERETO” (priority 2024, published 2025).

As for `CC(=O)Nc1ccc(F)c(NC(=O)c2cc(NC(=O)[C@H]3[C@H](c4cc(Cl)cc(Cl)c4)C3(Cl)Cl)cc(F)c2Cl)c1F` [F1505, N-(3-acetamido-2,6-difluorophenyl)-2-chloro-5-((1R,3R)-2,2-dichloro-3-(3,5-dichlorophenyl)cyclopropane-1-carboxamido)-3-fluorobenzamide], the pest or weed control at 50 µg/cm2 lay in the range of 50 to 100% in data set [1] (Cabbage Looper, rating class, read-out: CL) and 50 to 100% in data set [2] (Beet Armyworm, rating class, read-out: BAW). Further, the pest or weed control at 200 µg/mL in data set [3] (Green Peach Aphid, rating class, read-out: GPA) was in the range of 0 to 80%.
Turning to `Cc1c(Cl)cc(NC(=O)[C@H]2[C@H](c3ccc(F)c(Cl)c3)C2(Cl)Cl)cc1C(=O)Nc1ccc(F)cc1F` (relative stereo) [F1190, trans-3-Chloro-5-(2,2-dichloro-3-(3-chloro-4-fluorophenyl)cyclopropane-1-carboxamido)-N-(2,4-difluorophenyl)-2-methylbenzamide], the pest or weed control at 50 µg/cm2 in data set [1] (setting [5]) and in data set [2] (setting [6]) was 50 to 100% in each case. Besides, the pest or weed control at 200 µg/mL in data set [3] (setting [7]) fell in the range of 80 to 100%.
In the case of `O=C(NNC(=O)c1cc(NC(=O)[C@H]2[C@H](c3cc(Cl)cc(Cl)c3)C2(Cl)Cl)ccc1Cl)Nc1ccccc1` (relative stereo) [F2537, trans-2-(2-Chloro-5-(2,2-dichloro-3-(3,5-dichlorophenyl)cyclopropane-1-carboxamido)benzoyl)-N-phenylhydrazine-1-carboxamide], the pest or weed control at 50 µg/cm2 in data set [1] (setting [8]) and in data set [2] (setting [9]) was 50 to 100% each time. Further, the pest or weed control at 200 µg/mL in data set [3] (Green Peach Aphid, Table ABC / ABC-DP rating, read-out: GPA rating) lay within 80 to 100%.
As for `O=C(Nc1cc(NC(=O)C(Cl)Cl)c(F)cc1F)c1cc(NC(=O)[C@H]2[C@H](c3ccc(Cl)c(Cl)c3)C2(Cl)Cl)ccc1Cl` [F1244, 2-Chloro-5-((1R,3R)-2,2-dichloro-3-(3,4-dichlorophenyl)cyclopropane-1-carboxamido)-N-(5-(2,2-dichloroacetamido)-2,4-difluorophenyl)benzamide], the pest or weed control at 50 µg/cm2 in data set [1] (setting [5]) and in data set [2] (setting [6]) was 50 to 100% in each case. The pest or weed control at 200 µg/mL in data set [3] (setting [7]) is 0 to 80%.
`O=C(Nc1c(F)cc(NC(=O)C(F)(F)F)cc1F)c1cc(NC(=O)[C@H]2[C@H](c3ccc(Cl)c(Cl)c3)C2(Cl)Cl)ccc1Cl` [F1261, 2-Chloro-5-((1R,3R)-2,2-dichloro-3-(3,4-dichlorophenyl)cyclopropane-1-carboxamido)-N-(2,6-difluoro-4-(2,2,2-trifluoroacetamido)phenyl)benzamide]: the pest or weed control at 50 µg/cm2 in data set [1] (setting [5]) and in data set [2] (setting [6]) was 50 to 100% in each case. Also, the pest or weed control at 200 µg/mL in data set [3] (setting [7]) fell in the range of 80 to 100%.
For the molecule `O=C(Nc1ccc(F)c(NC(=O)C(F)F)c1F)c1cc(NC(=O)[C@H]2[C@H](c3ccc(F)c(Cl)c3)C2(Cl)Cl)cc(F)c1Cl` [F1256, 2-Chloro-5-((1R,3R)-2,2-dichloro-3-(3-chloro-4-fluorophenyl)cyclopropane-1-carboxamido)-N-(3-(2,2-difluoroacetamido)-2,4-difluorophenyl)-3-fluorobenzamide], the pest or weed control at 50 µg/cm2 in data set [1] (setting [5]) and in data set [2] (setting [6]) was 50 to 100% each time. Besides, the pest or weed control at 200 µg/mL in data set [3] (setting [7]) lay in the range of 80 to 100%.
Turning to `Nc1cc(NC(=O)c2cc(NC(=O)[C@H]3[C@H](c4ccc(Cl)c(Cl)c4)C3(Cl)Cl)ccc2Cl)c(F)cc1F` [DP5, N-(5-Amino-2,4-difluorophenyl)-2-chloro-5-((1R,3R)-2,2-dichloro-3-(3,4-dichlorophenyl)cyclopropane-1-carboxamido)benzamide], the mortality at 50 µg/cm2 in data set [1] and in data set [2] was 50 to 100% in each case. Besides, the pest or weed control at 50 µg/cm2 in data set [1] (setting [8]) and in data set [2] (setting [9]) was 50 to 100% in each case. For the same molecule, the YFM rating entry in data set [4] was “A (80–100)”. The “YFM % Control (or Mortality) rating” value in data set [4] was “A (80–100)”.
Turning to `O=C(Nc1ccc(F)cc1F)c1cc(NC(=O)[C@H]2[C@H](c3ccc(F)c(Cl)c3F)C2(Cl)Cl)ccc1Cl` (relative stereo) [F1034, trans-2-Chloro-5-(2,2-dichloro-3-(3-chloro-2,4-difluorophenyl)cyclopropane-1-carboxamido)-N-(2,4-difluorophenyl)benzamide], the pest or weed control at 50 µg/cm2 in data set [1] (setting [5]) and in data set [2] (setting [6]) was 50 to 100% each time. For the same molecule, the YFM result in data set [4] is reported as “A (80–100)”.
Regarding `O=C(Nc1ccc(F)cc1F)c1cc(NC(=O)[C@H]2[C@H](c3cc(Cl)cc(C(F)(F)F)c3)C2(Cl)Cl)ccc1Cl` (relative stereo) [F1118, trans-2-Chloro-5-(2,2-dichloro-3-(3-chloro-5-(trifluoromethyl)phenyl)cyclopropane-1-carboxamido)-N-(2,4-difluorophenyl)benzamide], the pest or weed control at 50 µg/cm2 in data set [1] (setting [5]) and in data set [2] (setting [6]) was 50 to 100% in each case. Besides, in data set [4], the YFM result was “A (80–100)”.
On to `CN(NC(=O)c1cc(NC(=O)[C@H]2[C@H](c3cc(Cl)cc(Cl)c3)C2(Cl)Cl)ccc1Cl)c1ccccc1` (relative stereo) [F2557, trans-2,2-Dichloro-N-(4-chloro-3-(2-methyl-2-phenylhydrazine-1-carbonyl)phenyl)-3-(3,5-dichlorophenyl)cyclopropane-1-carboxamide], for which the pest or weed control at 50 µg/cm2 in data set [1] (setting [8]) and in data set [2] (setting [9]) was 50 to 100% in each case. Also, the YFM rating result in data set [4] was “A (80–100)”.
With `Nc1c(F)ccc(NC(=O)c2cc(NC(=O)[C@H]3[C@H](c4ccc(I)cc4)C3(Cl)Cl)ccc2Cl)c1F` (relative stereo) [F1140, trans-N-(3-Amino-2,4-difluorophenyl)-2-chloro-5-(2,2-dichloro-3-(4-iodophenyl)cyclopropane-1-carboxamido)benzamide], the pest or weed control at 50 µg/cm2 in data set [1] (setting [5]) and in data set [2] (setting [6]) was 50 to 100% each time. Moreover, the YFM entry in data set [4] was “A (80–100)”.
Take `Cc1cc(NC(=O)[C@H]2[C@H](c3ccc(F)c(Cl)c3)C2(Cl)Cl)cc(C(=O)Nc2ccc(F)cc2)c1F` (relative stereo) [F1136, trans-5-(2,2-Dichloro-3-(3-chloro-4-fluorophenyl)cyclopropane-1-carboxamido)-2-fluoro-N-(4-fluorophenyl)-3-methylbenzamide]: the pest or weed control at 50 µg/cm2 in data set [1] (setting [5]) and in data set [2] (setting [6]) was 50 to 100% throughout. Further, the YFM result in data set [4] is “A (80–100)”.
For the molecule `CC(C)(C)OC(=O)N(C(=O)OC(C)(C)C)c1cc(NC(=O)c2cc(NC(=O)[C@H]3[C@H](c4ccc(Cl)c(Cl)c4)C3(Cl)Cl)ccc2Cl)c(F)cc1F` [DP12, tert-Butyl-N-((tert-butoxy)carbonyl)-N-(5-(2-chloro-5-((1R,3R)-2,2-dichloro-3-(3,4-dichlorophenyl)cyclopropane-1-carboxamido)benzamido)-2,4-difluorophenyl)carbamate], the mortality at 50 µg/cm2 in data set [1] and in data set [2] was 50 to 100% each time. Further, the pest or weed control at 50 µg/cm2 in data set [1] (setting [8]) and in data set [2] (setting [9]) was 50 to 100% in each case. The “YFM % Control (or Mortality) rating” value in data set [4] is recorded as “D (No activity noticed in this bioassay)”.
On to `CC(CC(F)(F)F)C(=O)Nc1c(F)ccc(NC(=O)c2cc(NC(=O)[C@H]3[C@H](c4ccc(F)c(Cl)c4)C3(Cl)Cl)ccc2Cl)c1F` (stereo partly drawn) [F1866, 2-Chloro-5-((1R,3R)-2,2-dichloro-3-(3-chloro-4-fluorophenyl)cyclopropane-1-carboxamido)-N-(2,4-difluoro-3-(4,4,4-trifluoro-2-methylbutanamido)phenyl) benzamide], for which the pest or weed control at 50 µg/cm2 in data set [1] (setting [8]) and in data set [2] (setting [9]) was 50 to 100% throughout. In data set [4], the YFM rating entry is given as “A (80–100)”.
